Results taken from publication PMC6222798, “A Novel Class of Tyrosyl-DNA Phosphodiesterase 1 Inhibitors That Contains the Octahydro-2H-chromen-4-ol Scaffold” (Molecules : A Journal of Synthetic Chemistry and Natural …, 2018).
Where two headings read alike, the source gives them in different places.

Key:
Tdp1 [1] = target: T1, Tdp1 (Homo sapiens, UniProt Q9NUW8); experiment: Real-time oligonucleotide biosensor-based Tdp1 inhibition assay; format: biochemical
T1 construct: inferred from pET 16B vector and Ni-chelating resin; made in house; host or cells: Escherichia coli BL21(DE3)
T1 sequence (Q9NUW8 whole entry): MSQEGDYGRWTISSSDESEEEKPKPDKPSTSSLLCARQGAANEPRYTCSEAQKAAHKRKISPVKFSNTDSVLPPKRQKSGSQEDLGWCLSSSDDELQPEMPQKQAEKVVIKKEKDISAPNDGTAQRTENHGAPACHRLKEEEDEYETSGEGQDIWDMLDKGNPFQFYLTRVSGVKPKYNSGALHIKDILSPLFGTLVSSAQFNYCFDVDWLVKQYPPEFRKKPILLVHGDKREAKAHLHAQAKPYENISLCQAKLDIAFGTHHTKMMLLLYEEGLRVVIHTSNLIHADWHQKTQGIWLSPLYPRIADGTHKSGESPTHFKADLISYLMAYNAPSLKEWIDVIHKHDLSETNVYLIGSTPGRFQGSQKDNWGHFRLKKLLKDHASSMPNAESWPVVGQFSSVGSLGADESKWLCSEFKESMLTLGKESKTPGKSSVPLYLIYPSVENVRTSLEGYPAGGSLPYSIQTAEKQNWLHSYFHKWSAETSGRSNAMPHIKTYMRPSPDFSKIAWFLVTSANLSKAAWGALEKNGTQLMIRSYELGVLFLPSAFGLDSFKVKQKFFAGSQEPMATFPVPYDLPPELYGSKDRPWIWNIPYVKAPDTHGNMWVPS
Procedure: The inhibition potency of our synthesised compounds against Tdp1 was evaluated by using a real-time oligonucleotide biosensor-based assay. In this assay, Tdp1 catalyses the removal of fluorophore quenchers from the 3′-end of a modified DNA substrate. […] Hexadecameric oligonucleotide was selected as a Tdp1 substrate, as it contains 5(6)-carboxyfluorescein (FAM) at the 5′-end and fluorophore quencher BHQ1 (Black Hole Quencher-1) at the 3′-end. This approach was used to determine the inhibitory properties of all the chromenes.
The pET 16B-Tdp1 was kindly provided by Dr. K.W. Caldecott (University of Sussex, United Kingdom). Recombinant Tdp1 was expressed in Escherichia coli BL21(DE3) and was purified by chromatography on Ni-chelating resin and phosphocellulose P11, as described in [29].
Real-time Tdp1 activity measurements were carried out as described in [9]. In brief, Tdp1-biosensor (50 nM) was incubated in a buffer that contains 50 mM Tris-HCl pH 8.0, 50 mM NaCl, and 7 mM β-mercaptoethanol (200 μL). The mixture was then supplemented with purified Tdp1 (1.3 nM) and various concentrations of the inhibitor. Fluorescence measurements (Ex485/Em520 nm) were carried out during the linear phase of reaction (from 0 to 8 min) every 55 s. The reactions were incubated at a constant temperature of 26 °C using a POLARstar OPTIMA fluorimeter (BMG LABTECH). The influence of the compounds was evaluated by comparing the fluorescence increase rate in their presence to that of 1.5% DMSO control wells. The data were imported into the MARS Data Analysis 2.0 program (BMG LABTECH), and IC50 values were calculated by non-linear curve fitting.

[2] = target: T2, human Tdp1 (residues 149-608) (Homo sapiens, UniProt Q9NUW8); experiment: Intrinsic protein fluorescence-based Tdp1 binding assay; settings: supplementary figure legends; Tdp1 10 μM, 20 mM Tris, 250 mM NaCl, pH 8, triplicate
T2 construct: human Tdp1 (residues 149-608); made in house; host or cells: Escherichia coli BL21(DE3)
T2 sequence (Q9NUW8 149-608): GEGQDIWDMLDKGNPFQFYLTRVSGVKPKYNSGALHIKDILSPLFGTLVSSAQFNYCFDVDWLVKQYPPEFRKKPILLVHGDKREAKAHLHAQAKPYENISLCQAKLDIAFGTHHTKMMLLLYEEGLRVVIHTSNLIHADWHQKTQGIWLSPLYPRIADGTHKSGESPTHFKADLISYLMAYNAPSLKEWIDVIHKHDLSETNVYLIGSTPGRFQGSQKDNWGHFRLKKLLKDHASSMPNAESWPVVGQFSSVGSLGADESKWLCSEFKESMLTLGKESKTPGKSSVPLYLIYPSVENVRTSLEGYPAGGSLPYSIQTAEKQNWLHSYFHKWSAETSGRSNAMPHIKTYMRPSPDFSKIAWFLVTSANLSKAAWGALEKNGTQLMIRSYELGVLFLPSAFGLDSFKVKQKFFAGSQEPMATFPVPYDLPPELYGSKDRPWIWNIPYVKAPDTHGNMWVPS
Procedure: In addition to the inhibition assay, the binding of our compounds to Tdp1 was also evaluated. An intrinsic protein fluorescence-based assay, which we have previously applied to study the binding of esters combining monoterpenoid and adamantane fragments, was applied. In agreement with the inhibition data, all our compounds were relatively strong binders to Tdp1, with dissociation constants (KD) in the low μM region (Table 1 and Supplementary Figures S1–S7). […] This is possibly due to the large hydrophobic surface of Tdp1. The slight discrepancy between the measured KD and IC50 values is likely due to these non-specific binding events.
Synthetic DNA encoding human Tdp1 (residues 149-608 [2]) was cloned into pET-28a(+) (GenScript), which was then transformed into Escherichia coli BL21(DE3) for recombinant protein production. Protein production was induced with 1 mM IPTG at 28 °C with overnight incubation. Tdp1 was purified using affinity and size exclusion chromatography. Fluorescence was measured using a PerkinElmer EnSpire Multimode Reader. Tdp1 concentration was 10 μM and compound concentrations were 1 μM, 2.5 μM, 5 μM, 10 μM, 15 μM, 20 μM, 30 μM, 50 μM, 100 μM, 200 μM, 350 μM, 500 μM, and 750 μM. Buffer was 20 mM Tris and 250 mM NaCl (pH 8). Excitation wavelength was 280 nm and intrinsic fluorescence was measured between 300 and 450 nm. Control experiments with Tdp1 or compound on its own were also conducted. Background fluorescence arising from the compounds was subtracted from the final spectrum. The total volume per well was 30 μL. Dissociation constant (KD) values were calculated using the following formula (1), which takes non-specific binding into account. I = Imax ×[LT]/KD+[LT] +Ns[LT]
I indicates changes in fluorescence intensity from the titrations, Imax indicates the maximum fluorescence intensity change, [LT] is the titrated ligand concentration, and Ns is the non-specific term. Non-linear curve fitting was conducted using SigmaPlot 13.0 (Systat Software, San Jose, CA, USA). Experiments were conducted in triplicate and the errors shown are standard derivations.

Tdp1 [3] = target: T1, Tdp1; settings: Figure 1; cited from earlier work

SMILES: C[C@@H]1CC[C@@H]2[C@@H](C1)O[C@@H](c1ccc([N+](=O)[O-])s1)C[C@@]2(C)O [(4R)-8, (2R,4aR,7R,8aS)-4,7-Dimethyl-2-(5-nitrothiophen-2-yl)octahydro-2H-chromen-4-ols]
- IC50 (Tdp1 [1]; Table 1, (4R) diastereomer): > 15 µM
- IC50 (Tdp1 [1]; Table 2): > 15 µM
- Kd [2]: 23.3 ± 7.4 µM

SMILES: C[C@@H]1CC[C@@H]2[C@H](C1)O[C@@H](c1ccc(N)s1)C[C@@]2(C)O [(4R)-9, (2R,4R,4aR,7R,8aS)-4,7-Dimethyl-2-(5-aminothiophen-2-yl)octahydro-2H-chromen-4-ol]
- IC50 (Tdp1 [1]; Table 1, (4R) diastereomer): > 15 µM
- IC50 (Tdp1 [1]; Table 2): > 15 µM

SMILES: CC(=O)Nc1ccc([C@H]2C[C@@](C)(O)[C@@H]3CC[C@@H](C)C[C@H]3O2)s1 [(4R)-10, N-(5-((2R,4R,4aR,7R,8aR)-4-Hydroxy-4,7-dimethyloctahydro-2H-chromen-2-yl)thiophen-2-yl)acetamide]
- IC50 (Tdp1 [1]; Table 1, (4R) diastereomer): 2.9 ± 0.8 µM

SMILES: C[C@@H]1CC[C@@H]2[C@@H](C1)O[C@@H](c1ccc(NC(=O)C(F)(F)F)s1)C[C@@]2(C)O [(4R)-11, 2,2,2-Trifluoro-N-(5-((2R,4R,4aR,7R,8aR)-4-hydroxy-4,7-dimethyloctahydro-2H-chromen-2-yl)thiophen-2-yl)acetamide]
- IC50 (Tdp1 [1]; Table 1, (4R) diastereomer): 4 ± 0.4 µM
- Kd [2]: 19.8 ± 2.4 µM

SMILES: C[C@@H]1CC[C@@H]2[C@@H](C1)O[C@@H](c1ccc(NC(=O)c3ccccc3)s1)C[C@@]2(C)O [(4R)-12, N-(5-((2R,4R,4aR,7R,8aR)-4-Hydroxy-4,7-dimethyloctahydro-2H-chromen-2-yl)thiophen-2-yl)benzamide]
- IC50 (Tdp1 [1]; Table 1, (4R) diastereomer): 3.3 ± 0.2 µM

SMILES: C[C@@H]1CC[C@@H]2[C@H](C1)O[C@@H](c1ccc(NC(=O)C34CC5CC(CC(C5)C3)C4)s1)C[C@@]2(C)O [(4R)-13, N-(5-((2R,4R,4aR,7R,8aS)-4-Hydroxy-4,7-dimethyloctahydro-2H-chromen-2-yl)thiophen-2-yl)adamantane-1-carboxamide]
- IC50 (Tdp1 [1]; Table 1, (4R) diastereomer): 2.8 ± 0.6 µM
- Kd [2]: 12.4 ± 7.5 µM

SMILES: C[C@@H]1CC[C@@H]2[C@@H](C1)O[C@@H](c1ccc([N+](=O)[O-])s1)C[C@]2(C)O [(4S)-8, (2R,4aR,7R,8aS)-4,7-Dimethyl-2-(5-nitrothiophen-2-yl)octahydro-2H-chromen-4-ols]
- IC50 (Tdp1 [1]; Table 1, (4S) diastereomer): > 15 µM
- IC50 (Tdp1 [1]; Table 2): > 15 µM
- Kd [2]: 30.6 ± 9.33 µM

SMILES: C[C@@H]1CC[C@@H]2[C@H](C1)O[C@@H](c1ccc(N)s1)C[C@]2(C)O [(4S)-9, (2R,4S,4aR,7R,8aS)-4,7-dimethyl-2-(5-aminothiophen-2-yl)octahydro-2H-chromen-4-ol]
- IC50 (Tdp1 [1]; Table 1, (4S) diastereomer): > 15 µM
- IC50 (Tdp1 [1]; Table 2): > 15 µM

SMILES: CC(=O)Nc1ccc([C@H]2C[C@](C)(O)[C@@H]3CC[C@@H](C)C[C@H]3O2)s1 [(4S)-10, N-(5-((2R,4S,4aR,7R,8aR)-4-Hydroxy-4,7-dimethyloctahydro-2H-chromen-2-yl)thiophen-2-yl)acetamide]
- IC50 (Tdp1 [1]; Table 1, (4S) diastereomer): 5.8 ± 3 µM

SMILES: C[C@@H]1CC[C@@H]2[C@@H](C1)O[C@@H](c1ccc(NC(=O)C(F)(F)F)s1)C[C@]2(C)O [(4S)-11, 2,2,2-Trifluoro-N-(5-((2R,4S,4aR,7R,8aR)-4-hydroxy-4,7-dimethyloctahydro-2H-chromen-2-yl)thiophen-2-yl)acetamide]
- IC50 (Tdp1 [1]; Table 1, (4S) diastereomer): 1.4 ± 0.3 µM
- Kd [2]: 2 ± 1.2 µM

SMILES: C[C@@H]1CC[C@@H]2[C@@H](C1)O[C@@H](c1ccc(NC(=O)c3ccccc3)s1)C[C@]2(C)O [(4S)-12, N-(5-((2R,4S,4aR,7R,8aR)-4-Hydroxy-4,7-dimethyloctahydro-2H-chromen-2-yl)thiophen-2-yl)benzamide]
- IC50 (Tdp1 [1]; Table 1, (4S) diastereomer): 5 ± 1.5 µM
- Kd [2]: 24.5 ± 5.7 µM

SMILES: C[C@@H]1CC[C@@H]2[C@H](C1)O[C@@H](c1ccc(NC(=O)C34CC5CC(CC(C5)C3)C4)s1)C[C@]2(C)O [(4S)-13, N-(5-((2R,4S,4aR,7R,8aS)-4-Hydroxy-4,7-dimethyloctahydro-2H-chromen-2-yl)thiophen-2-yl)adamantane-1-carboxamide]
- IC50 (Tdp1 [1]; Table 1, (4S) diastereomer): 1.24 ± 0.02 µM
- Kd [2]: 17.9 ± 3.4 µM

SMILES: O=c1cccc([C@H]2[C@H](c3ccc(O)cc3)[C@H](c3cccc(=O)o3)[C@H]2c2ccc(O)cc2)o1 [Compound 2, achyrodimer F]
- IC50 (Tdp1 [3]): 1 µM

SMILES: CC1(C)[C@H]2CC=C(COc3ccc4c5c(c(=O)oc4c3)CCC5)[C@@H]1C2 [Compound 3]
- IC50 (Tdp1 [3]): 0.675 µM
